Results on four compounds are retold here after paper PMC9140701, “Immunomodulatory Role of BLG-Derived Peptides Based on Simulated Gastrointestinal Digestion and DC-T Cell from Mice Allergic to Cow’s Milk” (Foods, 2022).

Series [1] is described as follows: Caco-2 monolayer transport (apparent permeability), normal and IL-1β-induced inflammation model. It counts as in vitro ADME, human. As to conditions: human; Caco-2 monolayer, 12-well Transwell, 21 days, TEER > 400 Ω × cm^2, from AP side, 37 °C; within 2 h, at the three time points; normal model and IL-1β-induced inflammation model; three replicates; read-out: apparent permeability coefficient (Papp). On the procedure: (§1) Caco-2 cells (a human colon adenocarcinoma cell line) were preserved in our lab and cultured in DMEM supplemented with 12% (v/v) FBS (FND500, ExCell Bio, Shanghai, China), 1% (v/v) L-glutamine, 1% (v/v) streptomycin–penicillin, and 1% (v/v) nonessential amino acids at 37 °C and 5% CO2. Caco-2 cells were seeded in 12-well Transwell plates at a density of 2 × 10^5 cells per well. On the 10th to 21st days, the transepithelial electrical resistance (TEER) of each well was detected using a Millicell ERS-2 V-ohm meter (Millipore, Boston, MA, USA). […] The protein profile of cow’s milk after simulated digestion was detected by (A) Tricine-SDS-PAGE. Lane 1: unstained low range protein ladder. Lane 2: pepsin. Lane 3: the cow’s milk. Lane 4: cow’s milk digested in the simulated adult gastrointestinal fluid for 0 min. Lane 5: cow’s milk digested in the simulated adult gastric fluid for 60 min. Lane 6: cow’s milk digested in the simulated adult gastrointestinal fluid for 60 min. Lane 7: cow’s milk digested in the simulated infant gastrointestinal fluid for 0 min. Lane 8: cow’s milk digested in the simulated infant gastric fluid for 60 min. Lane 9: cow’s milk digested in the infant simulated gastrointestinal fluid for 60 min. […] Y-axis value represents the occurrence numbers of amino acids of BLG peptides. (C) The whole amino acid sequence of BLG used in our study; the red letters indicate the areas where unique peptides are present after the simulated digestion of the infants, while the green letters represent unique peptides in the adults’ digestion. (D) The Papp of BLG peptides across Caco-;2 monolayers at 30 min, 1 h, 2 h, 3 h, and 4 h in the normal model and IL-1β-induced inflammation model, respectively. The data were calculated in three replicates. BLG, beta-lactoglobulin. Papp, apparent permeability coefficients.
Background: Caco-2 cells form a polarised layer with tight junctions and transporters.

The subject of a further series is Caco-2 cell monolayer. Described as above. The format is in vitro ADME, human. As to conditions: integrity check. The method, then:
as §1

Ends that are not written are not given here. Bounds are passed on as bounds.

For the compound RVYVEELKPTPEGDLEILLQK [Peptide A3], in series [1], the Papp A→B is over 2 ×10⁻⁶ cm/s. Regarding LIVTQTMKGLDIQK [Peptide A1], the Papp A→B in series [1] is over 2 ×10⁻⁶ cm/s.

In the case of `O=C([O-])c1ccccc1-c1c2ccc(=O)cc-2oc2cc([O-])ccc12.[Na+].[Na+]` [fluorescein sodium, reference compound], the “fluorescein sodium transport permeability” value in the series on Caco-2 cell monolayer (Caco-2 monolayer after 21 days, normal mode) was found to be 1.19 μg/h·cm^2; in the series on Caco-2 cell monolayer (Caco-2 monolayer, inflammatory mode (IL-1β 10 ng/mL added on the 21st day, removed after 2 days)), 1.71 μg/h·cm^2. For MAASDISLLDAQ [Peptide A2], in series [1], the Papp A→B was over 2 ×10⁻⁶ cm/s.
